Experiments:
Assay type in all cases: in vivo, rat
pancreatic islets = assay: Number of harvested pancreatic islets in treated ZDF rats; settings: 10 mg/kg oral for 3 weeks, vehicle 51±13, fa+ 120±28, mean±SEM
Description: Male ZDF fa/fa and ZDF fa+ rats were obtained from Genetic Models (Indianapolis, Ind.), at the age of 6 weeks and used in the experiments at 12 weeks of age, after 3 weeks of oral treatment with vehicle or GW3965 (10 mg/kg). Compounds were given once daily (at 17 h) via oral gavage. At the time of their use, the ZDF fa/fa rats weighed 310-350 g, whereas the age-matched ZDF fa+ rats weighed 245-285 g. ZDF fa+ and ZDF fa/fa animals had free access to diabetogenic chow (Purina 5008). Animals were housed 5 per cage in a temperature and humidity-controlled room with a 12/12-h light-dark cycle. Blood samples were taken 16 h after compound administration via the tail vein and measured on a Konelab 300 (Labsystem) clinical chemistry analyzer. Rat pancreatic islets were prepared by collagenase digestion and density gradient purification. The enzyme collagenase type XI (Sigma Chemical, St. Louis, Mo.) was used for digestion of the pancreas. After an overnight fast, animals were deeply anesthetized and killed. Then, the pancreatic duct was cannulated, and 20 ml of the digestion solution at 37° C. (collagenase 30 mg/ml dissolved in 20 ml Hanks' balanced salt solution [HBSS]) (Sigma Chemical, St. Louis, Mo.) was slowly injected to distend the tissue. […]

[1] = tested on: isolated pancreatic islets; assay: Glucose-stimulated insulin secretion in pancreatic islets isolated from treated ZDF rats; settings: islets of ZDF rats treated 10 mg/kg oral for 3 weeks
Description: (§1) Male ZDF fa/fa and ZDF fa+ rats were obtained from Genetic Models (Indianapolis, Ind.), at the age of 6 weeks and used in the experiments at 12 weeks of age, after 3 weeks of oral treatment with vehicle or GW3965 (10 mg/kg). Compounds were given once daily (at 17 h) via oral gavage. At the time of their use, the ZDF fa/fa rats weighed 310-350 g, whereas the age-matched ZDF fa+ rats weighed 245-285 g. ZDF fa+ and ZDF fa/fa animals had free access to diabetogenic chow (Purina 5008). Animals were housed 5 per cage in a temperature and humidity-controlled room with a 12/12-h light-dark cycle. Blood samples were taken 16 h after compound administration via the tail vein and measured on a Konelab 300 (Labsystem) clinical chemistry analyzer. Rat pancreatic islets were prepared by collagenase digestion and density gradient purification. The enzyme collagenase type XI (Sigma Chemical, St. Louis, Mo.) was used for digestion of the pancreas. After an overnight fast, animals were deeply anesthetized and killed. Then, the pancreatic duct was cannulated, and 20 ml of the digestion solution at 37° C. […] Insulin content was measured in the same islets after an overnight alcohol-acid extraction (Ethanol 75%+HCl 0.15 N). Insulin concentrations in the different media were determined by rat insulin ELISA test (Insulin Rat Elite plus, MERCODIA).

PDX1 mRNA = assay: Real-time quantitative RT-PCR of PDX1 in isolated islets of treated ZDF rats; settings: normalized to 18S rRNA, vehicle ZDF 0.17, fa+ 0.38±0.21
Description: Pancreatic and duodenal homeobox gene 1, Pdx1 (Genbank: NM_022852) and facilitated glucose transporter, member 2, Glut2 (Genbank: NM_012879) gene expression were measured by real time quantitative RT-PCR. Total RNAs from fresh isolated rat pancreatic islets were prepared using Rneasy 96 Kit according to the manufacturer's protocol (Qiagen, France), treated with Dnase I to remove contaminating DNA (Stratagene, France), and quantified using the iScript cDNA Synthesis and iQ SYBR Green Supermix kits (Biorad, france). Real-time quantitative RT-PCR was performed using the iCycler Detection System instrument and software (Bio-Rad). As the predicted size of the amplified cDNAs and the Tm values for the primers were similar, uniform amplification conditions were applied (ie. annealing at 60° C.). Specificity of amplified products was monitored by performing melting curves at the end of each amplification. Expression levels were quantified (total RNA units) by generating a six-point serial standard curve. RNA samples were normalized for comparison by determining 18S rRNA levels. In this example, the mRNA expression of PDX1 and Glut2 was determined. As previously described, PDX1 and Glut2 are markers of the regeneration of beta cells. […] PDX1 and Glut2 mRNA expression was increased in islets isolated from GW3965-compared to vehicle-treated ZDF rats. […]

[2] = tested on: isolated pancreatic islets; assay: Insulin content of pancreatic islets isolated from treated ZDF rats; settings: 10 mg/kg oral for 3 weeks, vehicle 4.78±0.86, fa+ 27.74±6.85, mean±SEM
Description: as §1

## O=C(O)Cc1cccc(OCCCN(Cc2cccc(C(F)(F)F)c2Cl)CC(c2ccccc2)c2ccccc2)c1 [GW3965]
Pancreatic islets
  number of harvested pancreatic islets: 80±16 islets/rat
[1]; 3.3 mmol/l glucose
  increase of insulin secretion vs vehicle-treated ZDF rat islets: 133.8%
[1]; 16.7 mmol/l glucose
  increase of insulin secretion vs vehicle-treated ZDF rat islets: 74.5%
PDX1 mRNA
  PDX1 mRNA expression: 0.35±0.11
[2]
  insulin content of islets: 13.05±2.49 ng/islet

— patent US8030335B2, “Use of liver X receptor agonists” (Laboratoires Fournier S.A., priority 2005, dated 2011)
